From PubChem BioAssay AID1259407 (Chemical Carcinogenesis Research Information System (CCRIS), 2018)
Active and inactive are the calls of the source. How the calls were made is not given here.

Test system: CCRIS mutagenicity, Ames/micronucleus/aberration tests
Assay: CCRIS mutagenicity studies
[1] = Test System: AMES SALMONELLA TYPHIMURIUM, Strain/Indicator: TA98, Metabolic Activation: NONE, Method: STANDARD PLATE
[2] = Test System: AMES SALMONELLA TYPHIMURIUM, Strain/Indicator: TA100, Metabolic Activation: NONE, Method: STANDARD PLATE
[3] = Test System: AMES SALMONELLA TYPHIMURIUM, Strain/Indicator: TA100, Metabolic Activation: RAT, LIVER, S-9, AROCLOR 1254, Method: STANDARD PLATE
[4] = Test System: AMES SALMONELLA TYPHIMURIUM, Strain/Indicator: TA1537, Metabolic Activation: NONE, Method: STANDARD PLATE
[5] = Test System: AMES SALMONELLA TYPHIMURIUM, Strain/Indicator: TA100, Metabolic Activation: NONE, Method: PREINCUBATION

C1CCC2OCCOCCOCCOC3CCCCC3OCCOCCOCCOC2C1 (stereo not drawn)
mutagenic call [1]: inactive; negative | mutagenic call (Test System: AMES SALMONELLA TYPHIMURIUM, Strain/Indicator: TA98, Metabolic Activation: RAT, LIVER, S-9, AROCLOR 1254, Method: STANDARD PLATE): inactive; negative | mutagenic call [2]: inactive; negative | mutagenic call [3]: inactive; negative | mutagenic call (Test System: AMES SALMONELLA TYPHIMURIUM, Strain/Indicator: TA1530, Metabolic Activation: NONE, Method: STANDARD PLATE): inactive; negative | mutagenic call (Test System: AMES SALMONELLA TYPHIMURIUM, Strain/Indicator: TA1530, Metabolic Activation: RAT, LIVER, S-9, AROCLOR 1254, Method: STANDARD PLATE): inactive; negative | mutagenic call [4]: inactive; negative | mutagenic call (Test System: AMES SALMONELLA TYPHIMURIUM, Strain/Indicator: TA1537, Metabolic Activation: RAT, LIVER, S-9, AROCLOR 1254, Method: STANDARD PLATE): inactive; negative

CC(=O)Oc1c(OC(C)=O)c2c([N+](=O)[O-])ccc3c4ccccc4c4cccc1c4c23
mutagenic call (Test System: AMES SALMONELLA TYPHIMURIUM, Strain/Indicator: TA98, Metabolic Activation: NONE', Method: STANDARD PLATE): active; positive | mutagenic call [2]: active; positive

Fc1cccc2ncccc12
mutagenic call (End Point: In vitro chromosomal aberrations, Test System: Chinese hamster lung fibroblast cells (CHL/IU), Metabolic Activation: Rat, liver, S-9): active; positive, described as marginally clastogenic at non toxic doses. (information d | mutagenic call (End Point: In vitro micronucleus, Test System: Chinese hamster lung fibroblast cells (CHL/IU), Metabolic Activation: Rat, liver, S-9): active; positive (information derived from a figure) | mutagenic call (Test System: AMES SALMONELLA TYPHIMURIUM, Strain/Indicator: TA100, Metabolic Activation: RAT LIVER S-9, PHENOBARBITAL AND 5,6-BENZOFLAVONE, Method: PREINCUBATION): active; positive | mutagenic call (Test System: AMES SALMONELLA TYPHIMURIUM, Strain/Indicator: TA100, Metabolic Activation: RAT, LIVER, S-9, AROCLOR 1254, Method: PREINCUBATION): active; positive | mutagenic call (Test System: AMES SALMONELLA TYPHIMURIUM, Strain/Indicator: TA100, Metabolic Activation: RAT, LIVER, S-9, PHENOBARBITAL AND 5,6-BENZOFLAVONE, Method: PREINCUBATION): active; positive | mutagenic call (Test System: AMES SALMONELLA TYPHIMURIUM, Strain/Indicator: TA100, Metabolic Activation: RAT, LIVER, S-9, PHENOBARBITAL AND 5,6-NAPHTHOFLAVONE, Method: PREINCUBATION): active; positive | mutagenic call (Test System: UDS RODENT HEPATOCYTES, Strain/Indicator: THY INCORP (NON-S-PHASE), Metabolic Activation: NONE, Method: AUTORADIOGRAPHY): active; positive

CC(O)CN1CC(C)OC1=O (stereo not drawn)
mutagenic call (Test System: AMES SALMONELLA TYPHIMURIUM, Strain/Indicator: TA98, Metabolic Activation: HAMSTER, LIVER, S-9, AROCLOR 1254 (10%), Method: STANDARD PLATE): inactive; negative | mutagenic call [1]: inactive; negative | mutagenic call (Test System: AMES SALMONELLA TYPHIMURIUM, Strain/Indicator: TA98, Metabolic Activation: RAT, LIVER, S-9, AROCLOR 1254 (10%), Method: STANDARD PLATE): inactive; negative | mutagenic call (Test System: AMES SALMONELLA TYPHIMURIUM, Strain/Indicator: TA100, Metabolic Activation: HAMSTER, LIVER, S-9, AROCLOR 1254 (10%), Method: STANDARD PLATE): inactive; negative | mutagenic call [2]: inactive; negative | mutagenic call (Test System: AMES SALMONELLA TYPHIMURIUM, Strain/Indicator: TA100, Metabolic Activation: RAT, LIVER, S-9, AROCLOR 1254 (10%), Method: STANDARD PLATE): inactive; negative | mutagenic call (Test System: AMES SALMONELLA TYPHIMURIUM, Strain/Indicator: TA1535, Metabolic Activation: HAMSTER, LIVER, S-9, AROCLOR 1254 (10%), Method: STANDARD PLATE): inactive; negative | mutagenic call (Test System: AMES SALMONELLA TYPHIMURIUM, Strain/Indicator: TA1535, Metabolic Activation: NONE, Method: STANDARD PLATE): inactive; negative | mutagenic call (Test System: AMES SALMONELLA TYPHIMURIUM, Strain/Indicator: TA1535, Metabolic Activation: RAT, LIVER, S-9, AROCLOR 1254 (10%), Method: STANDARD PLATE): inactive; negative | mutagenic call (Test System: AMES SALMONELLA TYPHIMURIUM, Strain/Indicator: TA1537, Metabolic Activation: HAMSTER, LIVER, S-9, AROCLOR 1254 (10%), Method: STANDARD PLATE): inactive; negative | mutagenic call [4]: inactive; negative | mutagenic call (Test System: AMES SALMONELLA TYPHIMURIUM, Strain/Indicator: TA1537, Metabolic Activation: RAT, LIVER, S-9, AROCLOR 1254 (10%), Method: STANDARD PLATE): inactive; negative | mutagenic call (Test System: AMES SALMONELLA TYPHIMURIUM, Strain/Indicator: TA1538, Metabolic Activation: HAMSTER, LIVER, S-9, AROCLOR 1254 (10%), Method: STANDARD PLATE): inactive; negative | mutagenic call (Test System: AMES SALMONELLA TYPHIMURIUM, Strain/Indicator: TA1538, Metabolic Activation: NONE, Method: STANDARD PLATE): inactive; negative | mutagenic call (Test System: AMES SALMONELLA TYPHIMURIUM, Strain/Indicator: TA1538, Metabolic Activation: RAT, LIVER, S-9, AROCLOR 1254 (10%), Method: STANDARD PLATE): inactive; negative | mutagenic call (Test System: MOUSE LYMPHOMA, Strain/Indicator: L5178Y (TK+/TK-), Metabolic Activation: NONE, Method: SUSPENSION/PLATE): active; positive. reevaluation of results: positive | mutagenic call (Test System: MOUSE LYMPHOMA, Strain/Indicator: L5178Y (TK+/TK-), Metabolic Activation: RAT, LIVER, S-9, AROCLOR 1254, Method: SUSPENSION/PLATE): active; positive. reevaluation of results: equivocal

O=P(O)(OCC(Br)CBr)OCC(Br)CBr (stereo not drawn)
mutagenic call [3]: active; positive | mutagenic call (Test System: AMES SALMONELLA TYPHIMURIUM, Strain/Indicator: TA1535, Metabolic Activation: RAT, LIVER, S-9, AROCLOR 1254, Method: STANDARD PLATE): active; positive

OC[C@H]1OC(n2cnc3c2ncn2ccnc32)C[C@@H]1O (stereo partly drawn)
mutagenic call [5]: inactive; negative

NNc1ccc([N+](=O)[O-])cc1
mutagenic call (Test System: AMES SALMONELLA TYPHIMURIUM, Strain/Indicator: TA98, Metabolic Activation: NONE, Method: PREINCUBATION): active; positive | mutagenic call (Test System: AMES SALMONELLA TYPHIMURIUM, Strain/Indicator: TA98, Metabolic Activation: RAT, LIVER, S-9, KANECHLOR 500, Method: PREINCUBATION): active; positive | mutagenic call [5]: active; positive | mutagenic call (Test System: AMES SALMONELLA TYPHIMURIUM, Strain/Indicator: TA100, Metabolic Activation: RAT, LIVER, S-9, KANECHLOR 500, Method: PREINCUBATION): active; positive

CCOc1ccccc1C(N)=O
mutagenic call (End Point: IN VITRO CHROMOSOMAL ABERRATIONS, Test System: CHL/IU CELLS, Metabolic Activation: NONE): active; positive (structural changes) | mutagenic call (End Point: IN VITRO MICRONUCLEUS, Test System: CHL/IU CELLS, Metabolic Activation: NONE): active; positive
